According to ChEMBL document CHEMBL1201862, “PubChem BioAssay data set” (2004):
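Step 1: Grow cells in 96-well plates. Step 2: Expose to compound for 48 hours at 5 concentrations. Step 3: Interpolate endpoints linearly; if unreached, use highest concentration. Here, GI50 denotes the concentration required for 50% inhibition of growth.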 Calls of active or inactive are those of the source. No stated cut-off is given here; in the data, active = GI50 up to about 1.1 µM and inactive = higher.

Tests used:
Test in all cases: NCI-60 cell line screen, 48 h
CAKI-1 = system: CAKI-1
CCRF-CEM = system: CCRF-CEM
HCC 2998 = system: HCC 2998
HCT-15 = system: HCT-15
HL-60 = system: HL-60
HOP-62 = system: HOP-62
HT-29 = system: HT-29
MCF7 = system: MCF7
Malme-3M = system: Malme-3M
NCI-H23 = system: NCI-H23
OVCAR-4 = system: OVCAR-4
OVCAR-5 = system: OVCAR-5
OVCAR-8 = system: OVCAR-8
SF-539 = system: SF-539
SN12C = system: SN12C
SW-620 = system: SW-620
UACC-62 = system: UACC-62
SR = system: SR

| SMILES | GI50 (CAKI-1) | GI50 (CCRF-CEM) | GI50 (HCC 2998) | GI50 (HCT-15) | GI50 (HL-60) | GI50 (HOP-62) | GI50 (HT-29) | GI50 (MCF7) | GI50 (Malme-3M) | GI50 (NCI-H23) | GI50 (OVCAR-4) | GI50 (OVCAR-5) | GI50 (OVCAR-8) | GI50 (SF-539) | GI50 (SN12C) | GI50 (SW-620) | GI50 (UACC-62) | GI50 (SR) |
| --- | --- | --- | --- | --- | --- | --- | --- | --- | --- | --- | --- | --- | --- | --- | --- | --- | --- | --- |
| O=c1cc(N2CCCC2)[nH]c(=O)n1-c1ccc(Cl)cc1 | > 100 µM (inactive) | > 100 µM (inactive) | > 100 µM (inactive) | > 100 µM | > 100 µM (inactive) | > 100 µM (inactive) | > 100 µM (inactive) | > 100 µM (inactive) | > 100 µM (inactive) | > 100 µM (inactive) | > 100 µM (inactive) | > 100 µM (inactive) | > 100 µM (inactive) | > 100 µM (inactive) | > 100 µM (inactive) | > 100 µM (inactive) | > 100 µM (inactive) |  |
| C/C(Nc1ccc(F)cc1)=C1/CCOC1=O |  | > 100 µM (inactive) | 25.6 µM (inactive) | > 100 µM | 12.4 µM (inactive) | > 100 µM (inactive) | > 100 µM (inactive) |  | > 100 µM (inactive) | > 100 µM (inactive) | > 100 µM (inactive) |  | 17.3 µM (inactive) | 77.3 µM (inactive) | > 100 µM (inactive) | > 100 µM (inactive) | 0.277 µM (active) | > 100 µM (inactive) |
| Cc1ccc2nc(N/N=C/c3sccc3C)cc(C)c2c1 | > 100 µM (inactive) | > 100 µM (inactive) | > 100 µM (inactive) | > 100 µM | 28.4 µM (inactive) | 29.3 µM (inactive) | 5.48 µM (inactive) | 25.3 µM (inactive) |  | > 100 µM (inactive) | 34.9 µM (inactive) | > 100 µM (inactive) | > 100 µM (inactive) |  | > 100 µM (inactive) | > 100 µM (inactive) | > 100 µM (inactive) |  |
| O=S(=O)(c1ccc(Br)cc1)N1CCN(S(=O)(=O)c2ccc(Br)cc2)CC1 | > 100 µM (inactive) | > 100 µM (inactive) |  | > 100 µM | > 100 µM (inactive) | > 100 µM (inactive) | > 100 µM (inactive) | > 100 µM (inactive) | > 100 µM (inactive) | > 100 µM (inactive) | > 100 µM (inactive) | > 100 µM (inactive) | > 100 µM (inactive) |  | > 100 µM (inactive) | > 100 µM (inactive) | > 100 µM (inactive) | 0.0703 µM (active) |
| CCCCCNc1nonc1N | > 100 µM (inactive) | > 31.6 µM (inactive) | > 100 µM (inactive) | > 100 µM |  | > 100 µM (inactive) | > 100 µM (inactive) | > 100 µM (inactive) | > 100 µM (inactive) | > 100 µM (inactive) | > 88.3 µM (inactive) | > 100 µM (inactive) | > 100 µM (inactive) | > 100 µM (inactive) | > 100 µM (inactive) | > 100 µM (inactive) | > 100 µM (inactive) | > 100 µM (inactive) |
| N#Cc1nnc2ccccc2c1N | > 100 µM (inactive) |  | > 100 µM (inactive) | > 100 µM |  | > 100 µM (inactive) | > 100 µM (inactive) | > 100 µM (inactive) | > 100 µM (inactive) | > 100 µM (inactive) | > 100 µM (inactive) | > 100 µM (inactive) | > 100 µM (inactive) | > 100 µM (inactive) |  | > 100 µM (inactive) | > 100 µM (inactive) | > 100 µM (inactive) |
| CC(C)N(C(=O)C12C3(C(=O)C(C)(C)C)C4C5(C#N)C3C1(C(=O)C(C)(C)C)C5C42C(=O)C(C)(C)C)C(C)C (centres undefined) | > 100 µM (inactive) | > 100 µM (inactive) | > 100 µM (inactive) | > 100 µM | > 100 µM (inactive) | > 100 µM (inactive) | > 100 µM (inactive) | > 100 µM (inactive) |  | > 100 µM (inactive) | > 100 µM (inactive) | > 100 µM (inactive) | > 100 µM (inactive) | > 100 µM (inactive) | > 100 µM (inactive) | > 100 µM (inactive) | > 100 µM (inactive) | > 100 µM (inactive) |
| CCCC(=O)OCC(COC(=O)CCC)OC(=O)CCC [TRIBUTYRIN] | 49.1 µM (inactive) | 46.1 µM (inactive) | > 100 µM (inactive) | > 100 µM | 33.3 µM (inactive) | > 100 µM (inactive) | > 100 µM (inactive) | > 100 µM (inactive) | 41.2 µM (inactive) | > 100 µM (inactive) | > 100 µM (inactive) | 57.3 µM (inactive) | 62.4 µM (inactive) | 62.8 µM (inactive) | > 100 µM (inactive) | > 100 µM (inactive) | 58.3 µM (inactive) |  |
